Drawing on BindingDB's records for doi:10.1016/j.bmc.2018.03.016 (University of Lille, 2018), this text covers IC50 for 15 molecules.

The structures appear in SMILES notation.

The nature of this test: Modulation of human wild-type APP695 expressed in SH-SY5Y cells assessed as inhibition of amyloid beta (1 to 42 residues) production measured after 24 hrs by ELISA. (ELISA stands for enzyme-linked immunosorbent assay.)
Take `O=C(NCCN1CCCCC1)c1cc(C(=O)NCCN2CCCCC2)cc(-c2ccccc2CN2CCCCC2)c1`: the 50% inhibitory concentration (IC50) is 9.4 µM.
`CN(C)CCN(C)Cc1cc(NC(=O)CN2CCCCC2)cc(Nc2ccnc3cc(Cl)ccc23)c1`: the IC50 came to 2.9 µM.
In the case of `Oc1c(CN2CCCC2)cc(Nc2ccnc3cc(Cl)ccc23)cc1CN1CCCC1`, the IC50 worked out at 11.2 µM.
Turning to `CCN(CC)Cc1cccc(Nc2ccnc3cc(Cl)ccc23)c1`, the IC50 turned out to be 10.4 µM.
The result for `CCN(CC)Cc1cc(NC(=O)CN2CCCCC2)cc(Nc2ccnc3cc(Cl)ccc23)c1` reads 2.8 µM; that for `c1ccc(Nc2cc(CNCCN3CCCCC3)cc(CNCCN3CCCCC3)c2)c(CN2CCOCC2)c1`, 7.9 µM.
Regarding `c1ccc(Nc2cc(CNCCN3CCCCC3)cc(CNCCN3CCCCC3)c2)c(CN2CCCCC2)c1`, the 50% inhibitory concentration (IC50) turned out to be 6 µM.
Regarding `O=C(CN1CCCCC1)Nc1cc(CN2CCOCC2)cc(Nc2ccnc3cc(Cl)ccc23)c1`, the IC50 was 7.1 µM.
With `CCN(CC)CCC[C@@H](C)Nc1ccnc2cc(Cl)ccc12` [Aralen] the figure was 12.8 µM.
With `O=C(NCCN1CCCCC1)c1cc(Nc2ccccc2CN2CCCCC2)cc(C(=O)NCCN2CCCCC2)c1` the figure was 4.7 µM; with `CCN(CC)Cc1cc(Nc2ccnc3cc(Cl)ccc23)ccc1O` [Amodiaquin], 5.4 µM.
The result for `CCN(CC)Cc1cc(NCCN2CCCCC2)cc(Nc2ccnc3cc(Cl)ccc23)c1` reads 13.8 µM; that for `CN1CCN(c2cc(Nc3ccnc4cc(Cl)ccc34)cc(N3CCN(C)CC3)c2)CC1`, 1.9 µM; that for `Clc1ccc2c(Nc3cc(CN4CCOCC4)cc(NCCN4CCCCC4)c3)ccnc2c1`, 4.9 µM.
Consider `CN(C)Cc1ccccc1Nc1cc(C(=O)NCCN2CCCCC2)cc(C(=O)NCCN2CCCCC2)c1`, for which the 50% inhibitory concentration (IC50) was over 10 µM.

The IC50 is the concentration at which inhibition is half-maximal.
